Reference: patent publication US10473647B1, “Peptides for use in treatment and diagnosis of type 1 diabetes” (ImmusanT, Inc., priority 2014, dated 2019)

Legend:
Format in all cases: cell-based, human
[1] = tested on: whole blood from subjects with T1D and Celiac disease; experiment: Whole blood cytokine release assay, IL-2 (MAGPIX), Example 1; conditions: individual 17mer 20 μg/mL, blood 6 days after commencing oral gluten challenge
[2] = tested on: whole blood from subjects with T1D and Celiac disease; experiment: Whole blood cytokine release assay, IP-10 (MAGPIX), Example 1; conditions: individual 17mer 20 μg/mL, blood 6 days after commencing oral gluten challenge; for subjects with elevated whole blood IP-10 release (2-fold greater than medium alone): four subjects
[3] = tested on: whole blood from subjects with T1D and Celiac disease; experiment: Whole blood cytokine release assay, IFN-γ (MAGPIX), Example 1; conditions: individual 17mer 20 μg/mL, blood 6 days after commencing oral gluten challenge

PLALEGSLQKRGIVEQC [SEQ ID NO: 58]
IL-2 fold-change ([1]; Subject 1): 1.00
IL-2 fold-change (preproinsulin peptides) ([1]; Subject 1): 1.00 fold
IL-2 fold-change ([1]; Subject 2): 1.00
IL-2 fold-change (preproinsulin peptides) ([1]; Subject 2): 1.00 fold
IL-2 fold-change ([1]; Subject 6): 1.00
IL-2 fold-change (preproinsulin peptides) ([1]; Subject 6): 1.00 fold
IL-2 fold-change ([1]; Subject 7): 3.50
IL-2 fold-change (preproinsulin peptides) ([1]; Subject 7): 3.50 fold
IP-10 fold-change ([2]; Subject 1): 1.23
IP-10 fold-change (preproinsulin peptides) ([2]; Subject 1): 1.23 fold
IP-10 fold-change ([2]; Subject 2): 1.02
IP-10 fold-change (preproinsulin peptides) ([2]; Subject 2): 1.02 fold
IP-10 fold-change ([2]; Subject 6): 0.87
IP-10 fold-change (preproinsulin peptides) ([2]; Subject 6): 0.87 fold
IP-10 fold-change ([2]; Subject 7): 1.09
IP-10 fold-change (preproinsulin peptides) ([2]; Subject 7): 1.09 fold
IFN-g fold-change ([3]; Subject 1): 0.43
IFN-g fold-change (preproinsulin peptides) ([3]; Subject 1): 0.43 fold
IFN-g fold-change ([3]; Subject 2): 0.82
IFN-g fold-change (preproinsulin peptides) ([3]; Subject 2): 0.82 fold
IFN-g fold-change ([3]; Subject 6): 0.86
IFN-g fold-change (preproinsulin peptides) ([3]; Subject 6): 0.86 fold
IFN-g fold-change ([3]; Subject 7): 1.53
IFN-g fold-change (preproinsulin peptides) ([3]; Subject 7): 1.53 fold

NMFTYEIAPVFVLLEYV [SEQ ID NO: 9]
subjects with elevated whole blood IP-10 release (2-fold greater than medium alone) [2]: all four subjects

AHSTSPMRSVLLTLVAL [SEQ ID NO: 70]
subjects with elevated whole blood IP-10 release (2-fold greater than medium alone) [2]: Two subjects

KYKIWMHVDAAWGGGLL [SEQ ID NO: 60]
subjects with elevated whole blood IP-10 release (2-fold greater than medium alone) [2]: Three subjects

MNILLEYVVKSFDRSTK [SEQ ID NO: 64]
subjects with elevated whole blood IP-10 release (2-fold greater than medium alone) [2]: two subjects

RPTLAFLQDVMNILLQY [SEQ ID NO: 59]
subjects with elevated whole blood IP-10 release (2-fold greater than medium alone) [2]: Three subjects

AFLQDVMNILLEYVVKS [SEQ ID NO: 63]
subjects with elevated whole blood IP-10 release (2-fold greater than medium alone) [2]: two subjects

CTVIVMLTPLVEDGVKQ [SEQ ID NO: 66]
subjects with elevated whole blood IP-10 release (2-fold greater than medium alone) [2]: Three subjects

NVCFWYIPPSLRTLEDN [SEQ ID NO: 10]
subjects with elevated whole blood IP-10 release (2-fold greater than medium alone) [2]: all four subjects
